Laboratory results: patent US20070298997A1, “Compounds useful in treating diabetic microvascular complications and age-related macular degeneration” (priority 2003, published 2007)

Legend:
[1] = tested on: Retinal capillary endothelial cells (RCEC); assay: Quantification of viable cells by MTT assay, RCEC; type: cell-based, bovine; conditions: 5 μM, 48 h
Procedure: FIG. 2 illustrates the specific inhibition of endothelial cell proliferation by recombinant kallistatin. RCEC were treated with recombinant kallistatin at concentrations of 5,10, 20, 40, 80 and 160 nM for 72 h. Viable cells were quantified by MTT assay. […] This effect appeared to be kallistatin concentration-dependent, with an apparent IC50 of 50 nM (FIG. 2) which is similar to that of K5, a known angiogenic inhibitor (Zhang et al., 2001).
FIG. 7 illustrates the effects of B1 and B2 kinin receptor antagonists on RCEC. In order to test whether the anti-angiogenic activity of kallistatin is via reducing kinin production by inhibiting kallikrein activity, RCEC were treated with 5 μM des-Arg^9-[Leu^8]-bradykinin, a specific antagonist of the B1 kinin receptor or Hoe-140, a specific B2 kinin receptor antagonist, in the presence or absence of 40 nM kallistatin for 48 h, and viable cells were quantified by MTT assay.
Quantification of viable cells: Cells were plated in 12-well plates in triplicate and cultured in the growth medium until they reached 60-70% of confluency. The culture medium was replaced with a medium containing 1% fetal bovine serum (FBS). Recombinant kallistatin was added to the cover medium to various concentrations and incubated with the cells for 72 h. The viable cells were quantified by the MTT (3-[4,5-dimethylthiazol-2-yl]-2,5-dephenyl tetrazolium bromid, Roche, Mannheim, Germany) assay following a protocol recommended by the manufacturer. The effect of kallistatin on viable cell number was analyzed using Student's t test.

[2] = tested on: B1 receptor; conditions: at 1 mM; cited from earlier work

Substance | inhibition of RCEC (viable cells) ([1]; P>0.05) | block of bradykinin-induced endothelial cell proliferation [2] | viable cells, % of the control ([1]; P<0.05)
Hoe-140 [reference compound] | no significant inhibition |  | 
des-Arg^9-[Leu^8]-bradykinin [reference compound] |  | completely block bradykinin-induced endothelial cell proliferation | 85 % of the control
